# Reference: the supplement of paper PMC10307832
# Key:
# Assay in all cases: relative viability (nuclei count vs DMSO), 5 days (fraction); higher = more cells survive
# BEN = tested on: BEN
# Summary of the method: (§1)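 Lung cancer cell lines in 1536-well plates were dosed by pin tool the day after seeding, either with one drug alone or with a fixed anchor-drug dose plus five library-drug doses (not always all listed) in √10 steps. After 5 days, cells were fixed and their nuclei stained in one step (final 0.05% Triton X-100, 1% formaldehyde, 1 ug/ml Hoechst), then counted on 4× images. Relative viability is the nuclei count in treated wells divided by that in vehicle wells. Values are medians of duplicate plates.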
# HCC-78 = tested on: HCC-78
# Summary of the method: as §1
# NCI-H1734 = tested on: NCI-H1734
# Summary of the method: as §1
# A-427 = tested on: A-427
# Summary of the method: as §1
# NCI-H3122 = tested on: NCI-H3122
# Summary of the method: as §1
# NCI-H650 = tested on: NCI-H650
# Summary of the method: as §1
# NCI-H1395 = tested on: NCI-H1395
# Summary of the method: as §1
# HOP-62 = tested on: HOP-62
# Summary of the method: as §1
# LC-2-ad = tested on: LC-2-ad
# Summary of the method: as §1
# NCI-H2087 = tested on: NCI-H2087
# Summary of the method: as §1
# LOU-NH91 = tested on: LOU-NH91
# Summary of the method: as §1
# LXF-289 = tested on: LXF-289
# Summary of the method: as §1
# EKVX = tested on: EKVX
# Summary of the method: as §1
# NCI-H596 = tested on: NCI-H596
# Summary of the method: as §1
# HARA = tested on: HARA
# Summary of the method: as §1
# NCI-H358 = tested on: NCI-H358
# Summary of the method: as §1
# HCC-44 = tested on: HCC-44
# Summary of the method: as §1
smiles,measurement,setting,value
COCC1(CO)C(=O)C2CCN1CC2 (stereo not given) [PRIMA-1MET] + NC(=O)Nc1cc(-c2cccc(F)c2)sc1C(=O)N[C@H]1CCCNC1 [AZD7762] (partner 0.2 µM),relative viability,BEN; first compound 0.2 µM,0.733
same,relative viability,BEN; first compound 0.6325 µM,0.603
same,relative viability,BEN; first compound 6.325 µM,0.653
same,relative viability,BEN; first compound 20 µM,0.652
same,relative viability,HCC-78; first compound 0.2 µM,0.893
same,relative viability,HCC-78; first compound 0.6325 µM,0.62
same,relative viability,HCC-78; first compound 2 µM,0.555
same,relative viability,HCC-78; first compound 6.325 µM,0.69
same,relative viability,HCC-78; first compound 20 µM,0.174
same,relative viability,NCI-H1734; first compound 0.2 µM,0.52
same,relative viability,NCI-H1734; first compound 0.6325 µM,0.538
same,relative viability,NCI-H1734; first compound 2 µM,0.685
same,relative viability,NCI-H1734; first compound 6.325 µM,0.452
same,relative viability,NCI-H1734; first compound 20 µM,0.0452
same,relative viability,A-427; first compound 0.2 µM,0.741
same,relative viability,A-427; first compound 0.6325 µM,0.795
same,relative viability,A-427; first compound 2 µM,0.756
same,relative viability,A-427; first compound 6.325 µM,0.711
same,relative viability,A-427; first compound 20 µM,0.557
same,relative viability,NCI-H3122; first compound 0.2 µM,0.854
same,relative viability,NCI-H3122; first compound 0.6325 µM,0.911
same,relative viability,NCI-H3122; first compound 2 µM,0.985
same,relative viability,NCI-H3122; first compound 6.325 µM,0.95
same,relative viability,NCI-H3122; first compound 20 µM,0.879
same,relative viability,NCI-H650; first compound 0.2 µM,0.961
same,relative viability,NCI-H650; first compound 0.6325 µM,0.828
same,relative viability,NCI-H650; first compound 2 µM,0.983
same,relative viability,NCI-H650; first compound 6.325 µM,0.995
same,relative viability,NCI-H650; first compound 20 µM,0.148
same,relative viability,NCI-H1395; first compound 0.2 µM,0.376
same,relative viability,NCI-H1395; first compound 2 µM,0.385
same,relative viability,NCI-H1395; first compound 6.325 µM,0.38
same,relative viability,NCI-H1395; first compound 20 µM,0.129
same,relative viability,HOP-62; first compound 0.2 µM,0.653
same,relative viability,HOP-62; first compound 0.6325 µM,0.387
same,relative viability,HOP-62; first compound 2 µM,0.482
same,relative viability,HOP-62; first compound 6.325 µM,0.655
same,relative viability,HOP-62; first compound 20 µM,0.273
same,relative viability,LC-2-ad; first compound 0.2 µM,0.968
same,relative viability,LC-2-ad; first compound 0.6325 µM,0.806
same,relative viability,LC-2-ad; first compound 2 µM,0.669
same,relative viability,LC-2-ad; first compound 6.325 µM,0.932
same,relative viability,LC-2-ad; first compound 20 µM,0.791
same,relative viability,NCI-H2087; first compound 0.6325 µM,1.35
same,relative viability,NCI-H2087; first compound 2 µM,1.29
same,relative viability,NCI-H2087; first compound 6.325 µM,1.25
same,relative viability,NCI-H2087; first compound 20 µM,0.938
same,relative viability,LOU-NH91; first compound 0.2 µM,0.828
same,relative viability,LOU-NH91; first compound 0.6325 µM,0.74
same,relative viability,LOU-NH91; first compound 2 µM,0.658
same,relative viability,LOU-NH91; first compound 6.325 µM,0.71
same,relative viability,LOU-NH91; first compound 20 µM,0.386
same,relative viability,LXF-289; first compound 0.2 µM,1.15
same,relative viability,LXF-289; first compound 0.6325 µM,1.07
same,relative viability,LXF-289; first compound 2 µM,1.13
same,relative viability,LXF-289; first compound 6.325 µM,1.12
same,relative viability,LXF-289; first compound 20 µM,1.01
same,relative viability,EKVX; first compound 0.2 µM,0.72
same,relative viability,EKVX; first compound 2 µM,0.524
same,relative viability,EKVX; first compound 6.325 µM,0.748
same,relative viability,EKVX; first compound 20 µM,0.378
same,relative viability,NCI-H596; first compound 0.2 µM,1.24
same,relative viability,NCI-H596; first compound 0.6325 µM,1
same,relative viability,NCI-H596; first compound 2 µM,0.884
same,relative viability,NCI-H596; first compound 6.325 µM,1.22
same,relative viability,NCI-H596; first compound 20 µM,0.232
same,relative viability,HARA; first compound 0.2 µM,0.308
same,relative viability,HARA; first compound 0.6325 µM,0.265
same,relative viability,HARA; first compound 2 µM,0.493
same,relative viability,HARA; first compound 6.325 µM,0.333
same,relative viability,HARA; first compound 20 µM,0.254
same,relative viability,NCI-H358; first compound 0.2 µM,0.592
same,relative viability,NCI-H358; first compound 2 µM,0.489
same,relative viability,NCI-H358; first compound 6.325 µM,0.484
same,relative viability,NCI-H358; first compound 20 µM,0.0265
same,relative viability,HCC-44; first compound 0.2 µM,1.02
same,relative viability,HCC-44; first compound 0.6325 µM,1.01
same,relative viability,HCC-44; first compound 2 µM,1.18
same,relative viability,HCC-44; first compound 6.325 µM,1.03
same,relative viability,HCC-44; first compound 20 µM,1.01
